Source: PubChem BioAssay (NCI)
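A five-concentration, 48-hour dose response in 96-well plates underlies each endpoint, interpolated linearly between surrounding concentrations. GI50 = concentration required for 50% inhibition of growth. TGI: concentration producing complete growth inhibition.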

How the values were obtained:
Assay in all cases: NCI tumour cell line growth inhibition, 48 h
CAKI-1 renal = tested on: CAKI-1 renal
SR leukemia = tested on: SR leukemia
NCI-H460 lung = tested on: NCI-H460 lung
EKVX NSCLC = tested on: EKVX NSCLC
MALME-3M melanoma = tested on: MALME-3M melanoma
MOLT-4 leukemia = tested on: MOLT-4 leukemia
PC-3 prostate = tested on: PC-3 prostate
SNB-19 CNS = tested on: SNB-19 CNS
MDA-MB-231 breast = tested on: MDA-MB-231 breast

Structure (SMILES)	GI50 (CAKI-1 renal) [µM]	TGI (CAKI-1 renal) [µM]	GI50 (SR leukemia) [nM]	TGI (SR leukemia) [µM]	GI50 (NCI-H460 lung) [µM]	TGI (NCI-H460 lung) [µM]	GI50 (EKVX NSCLC) [µM]	TGI (EKVX NSCLC) [µM]	GI50 (MALME-3M melanoma) [µM]	TGI (MALME-3M melanoma) [µM]	GI50 (MOLT-4 leukemia) [µM]	TGI (MOLT-4 leukemia) [µM]	GI50 (PC-3 prostate) [µM]	TGI (PC-3 prostate) [µM]	GI50 (SNB-19 CNS) [µM]	TGI (SNB-19 CNS) [µM]	GI50 (MDA-MB-231 breast) [µM]	TGI (MDA-MB-231 breast) [µM]
CCCC(=O)OCC1OC(n2cnc3c(=S)nc[nH]c32)C(OC(=O)CCC)C1OC(=O)CCC (centres undefined)	2.51	23.5	2020	40.2	8.13	> 100	35	> 100	38.5	> 100	3.06	39.1	3.72	> 100	46.4	> 100	5.71	> 100
O=C(O)c1nn(-c2ccccc2-c2n[nH]c(=O)[nH]c2=O)c(=O)[nH]c1=O	–	> 100	–	> 100	–	> 100	–	> 100	–	> 100	–	> 100	–	> 100	–	> 100	–	> 100
O=C(O)CCNC1CCCCC1	> 100	> 100	> 100000	> 100	> 100	> 100	> 100	> 100	> 100	> 100	> 100	> 100	> 100	> 100	> 100	> 100	> 100	> 100
Cc1ccc2c(c1)Sc1c(ccc3ccccc13)N2	15.3	> 100	4400	> 100	5.37	> 100	> 100	> 100	> 100	> 100	6.82	> 100	11.5	> 100	> 100	> 100	42.1	> 100
COC(=O)Nc1nc2ccc(Oc3ccc(NC(=O)Nc4cc(C(F)(F)F)ccc4F)cc3)cc2s1	> 25	> 25	5660	> 25	10.2	> 25	> 14.7	> 25	0.343	> 25	> 25	> 25	11.5	> 25	> 25	> 25	9.05	> 25
COc1ccc(-c2onc(N)c2-c2cc(OC)c3c(c2)OCO3)cc1	3.58	> 100	534	> 100	3	21.1	6.58	> 100	6.1	> 100	1.93	> 65.5	4.69	> 100	8.24	> 100	3.4	65.8
O=C1Nc2ccccc2C1(c1ccc(O)cc1)c1ccc(O)cc1	22.7	81.3	32900	> 96.3	18.5	37.9	14.5	90	28.5	92	26.6	98.1	2.71	75	34.3	> 97	20.3	48.7
COc1cc2ncn(-c3cc(OCc4cccs4)c(C(N)=O)s3)c2cc1OC	8.49	> 25	1480	> 25	1.06	> 10.5	7.93	> 25	2.5	> 25	1.07	> 25	3.43	> 25	3.25	> 25	2.21	> 21.2
C#CCNC(=O)c1cccc2c1cc(C)n2-c1nc2c(c(NCc3ccccc3)n1)CCCC2	0.0289	0.176	15.6	0.165	0.0233	0.0723	0.028	0.112	0.00311	0.0114	0.0229	0.075	0.024	0.0717	0.0362	0.126	0.0216	0.0546
Nc1nc(N(Cc2ccccc2)c2ccccc2)c2cn[nH]c2n1	3.67	> 100	1300	5.64	4.39	> 100	3.57	> 100	4.23	> 100	3.21	> 100	4.56	> 100	> 100	> 100	6.41	> 100
O=C1c2cccc([N+](=O)[O-])c2C(=O)N1c1ncn[nH]1	–	> 100	–	> 100	–	> 100	–	> 100	–	> 100	–	> 100	–	> 100	–	> 100	–	> 100
N#CSC1CCCCNC1=O (centres undefined)	–	31.8	–	38.9	–	28.7	–	37.5	–	31.4	–	15	–	34	–	30.2	–	33
CS(=O)(=O)CCNCc1ccc(-c2ccc3ncnc(Nc4ccc(OCc5ccccc5)cc4)c3c2)o1	2.04	> 25	5060	> 19.9	3.73	> 25	0.371	24.7	4.99	11.1	9.31	> 25	7.23	> 23.7	11.1	> 25	4.82	11.1
Cc1cc(Cl)cc2c1NC(=O)C2(O)CC(=O)c1ccco1 (centres undefined)	–	> 100	–	64.7	–	> 100	–	> 100	–	> 76.1	–	81.2	–	> 100	–	> 100	–	> 100
CCN(CC)CCCC(C)Nc1c2ccc(Cl)cc2nc2ccc(O)cc12 (centres undefined)	2.25	6.1	2070	7.11	1.38	3.84	2.94	11.6	1.42	2.87	1.31	13.6	3.58	18.5	3.37	16.3	2	5.39
